Data on 17 compounds can be found in paper PMC4638363, “Linear Interaction Energy Based Prediction of Cytochrome P450 1A2 Binding Affinities with Reliability Estimation” (PLoS ONE, 2015).

The subject of series [1] is CYP 1A2. As to conditions: cited from earlier work.
In series [2] the test system is CYP 1A2. The conditions noted are these: cited from earlier work. This is another data set of the same source.
Series [3] deals with T1, human CYP 1A2 (Homo sapiens, UniProt P05177).
T1 sequence (P05177 1-516): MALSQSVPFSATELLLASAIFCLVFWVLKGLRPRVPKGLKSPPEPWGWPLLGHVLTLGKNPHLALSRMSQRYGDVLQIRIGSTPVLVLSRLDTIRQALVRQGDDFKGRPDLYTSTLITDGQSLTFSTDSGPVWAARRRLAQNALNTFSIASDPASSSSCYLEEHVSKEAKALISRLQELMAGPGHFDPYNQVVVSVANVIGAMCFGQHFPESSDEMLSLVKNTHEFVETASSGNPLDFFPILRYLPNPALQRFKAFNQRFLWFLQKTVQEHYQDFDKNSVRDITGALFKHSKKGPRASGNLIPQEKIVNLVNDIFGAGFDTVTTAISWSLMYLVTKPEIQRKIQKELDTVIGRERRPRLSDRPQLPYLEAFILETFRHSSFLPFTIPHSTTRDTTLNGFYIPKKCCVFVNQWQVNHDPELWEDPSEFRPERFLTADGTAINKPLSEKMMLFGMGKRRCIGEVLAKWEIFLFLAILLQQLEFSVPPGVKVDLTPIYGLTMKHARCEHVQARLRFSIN
Nature of the series: in-house CYP 1A2 inhibition assay with 7-methoxyresorufin as substrate (resorufin fluorescence). The conditions noted are these: for ΔΔG bind: difference in ΔG bind between literature and in-house determined values; for ΔG bind (inhouse): from in-house IC50 via Cheng-Prusoff and RTln(Ki).

In series [4] the test system is CYP 1A2. Briefly: Source 1: Bayer HealthCare screen, phenacetin as substrate probe on pooled human liver microsomes. The conditions noted are these: for ΔG bind (lit): from literature IC50, Source 1 (Ref. 57); for ΔGbind^Obs: from literature IC50, Source 1.
In series [5] the test system is CYP 1A2. As to conditions: for ΔG bind (lit): from literature IC50, Source 2 (Ref. 58); for ΔGbind^Obs: training set, from literature IC50, Source 2.
For series [6], the target named is T1, human CYP 1A2.
Series [7] has as its system CYP 1A2. As to conditions: cited from earlier work. The source holds these as a separate data set.
For series [8], the target named is T1, human CYP 1A2. As to conditions: for ΔG bind (inhouse): human, 10 min, pH 7.4.
For series [9], the system named is CYP 1A2. As to conditions: human.
For series [10], the system named is recombinant CYP 1A2. As to conditions: human.
Series [11] has as its system recombinant CYP 1A2. As to conditions: cited from earlier work.
Series [12] concerns recombinant CYP 1A2.
[13] abbreviates: Table A, Source 1, ref Bayer HealthCare databases for CYP inhibition (eTOX).
Setting [14] is: read-out: IC 50 (lit), Source 1, pooled human liver microsomes, phenacetin probe.
[15] abbreviates: read-out: IC 50 (lit), Source 2, recombinant CYPs, phenacetin O-deethylation.
Where [16] appears, read: Table A, Source 2, ref Cohen et al., Drug Metab. Dispos. 2003.

Read-outs that look alike come from different tables or passages of the source.

For the compound `COc1ccccc1OCCNCC(O)COc1cccc2[nH]c3ccccc3c12` (stereo not drawn) [Compound 3, Carvedilol], the IC50 is 5.1 µM with CYP 1A2 [1] (setting [13]), 5.91 µM in the series on CYP 1A2 [1] (setting [14]) and 5 ± 0.2 µM on human CYP 1A2 [3]. In the series with CYP 1A2 [2] (literature), the Reported inhibition mechanism entry was “Substrate^62”. The compound further showed a ΔΔG bind on human CYP 1A2 [3] of 0.4 kJ/mol. Moreover, the “ΔG bind (inhouse)” value on human CYP 1A2 [3] is -32.2 ± 0.1 kJ/mol. For the same compound, in the series on CYP 1A2 [4], the “ΔG bind (lit)” value is -31.8 kJ/mol.
In the case of `CCOc1ccc(NC(C)=O)cc1` [Compound 6, Phenacetin], in the series on CYP 1A2 [5], the “ΔG bind (lit)” value is […] and the “ΔGbind^Obs” value is […]. In addition, the “Residual (ΔGbind^Obs—ΔGbind^Calc)” value at human CYP 1A2 [6] was […]. The IC50 with CYP 1A2 [7] (setting [15]) is […]. Moreover, the Reported inhibition mechanism result with CYP 1A2 [2] (literature) was “Substrate^64”.
Consider `C[C@]12CC[C@@H]3c4cc(F)c(O)cc4CC[C@H]3[C@@H]1CC[C@@H]2O` [Compound 20, 2-Fluoroestradiol], for which the “Residual (ΔGbind^Obs–ΔG bind ^Calc), error in prediction” value at human CYP 1A2 [6] (test set) was 7.0 kJ/mol. In addition, in the series with CYP 1A2 [1] (setting [13]), the IC50 was 26.8 µM. The “ΔGbind^Obs” value in the series with CYP 1A2 [4] (test set) is -28.1 kJ/mol.
With `O=c1c(O)c(-c2ccc(O)c(O)c2)oc2cc(O)cc(O)c12` [Compound 14, Quercetin], the “Residual (ΔGbind^Obs–ΔG bind ^Calc), error in prediction” value on human CYP 1A2 [6] (test set) was […]. For the same compound, the IC50 in the series with CYP 1A2 [1] (setting [13]) is […]. Moreover, in the series on CYP 1A2 [2] (literature), the Reported inhibition mechanism entry is recorded as “Competitive^67”. The “ΔGbind^Obs” value in the series on CYP 1A2 [4] (test set) is […].
As for `Clc1ccccc1CN1CCc2sccc2C1` [Compound 8, Ticlopidine], the “ΔG bind (lit)” value in the series with CYP 1A2 [5] was […]. Moreover, the IC50 in the series with CYP 1A2 [7] (setting [15]) is […]. For the same compound, the Reported inhibition mechanism result in the series on CYP 1A2 [2] (literature) was “Competitive^66”.
In the case of `Cc1nc2c([nH]1)c(=O)n(C)c(=O)n2Cc1ccco1` [Compound 24, Furafylline], the IC50 in the series on CYP 1A2 [7] (setting [16]) was […]. Also, in the series with CYP 1A2 [2] (literature), the Reported inhibition mechanism entry is given as “Mechanism-based^71”.
As to `Nc1c2c(nc3ccccc13)CCCC2` [Compound 2, Tacrine], at human CYP 1A2 [8], the ΔΔG bind turned out to be 2.1 kJ/mol and the “ΔG bind (inhouse)” value is -34.2 ± 1.2 kJ/mol. Further, in the series with CYP 1A2 [9], the “ΔG bind (lit)” value is -32.1 kJ/mol and the “ΔGbind^Obs” value is -32.2 kJ/mol. Besides, the “Residual (ΔGbind^Obs—ΔGbind^Calc)” value on human CYP 1A2 [6] was -2.8 kJ/mol. The IC50 in the series on CYP 1A2 [1] (microsomes) is 5.2 µM. Also, the Reported inhibition mechanism entry with CYP 1A2 [2] is “Substrate^61”. In addition, at human CYP 1A2 [3], the IC50 worked out at 2.3 ± 1 µM.
For `CC(C)NCC(O)COc1cccc2ccccc12` (stereo not drawn) [Compound 25, Propranolol], the “ΔGbind^Obs” value in the series with CYP 1A2 [5] was -32.9 kJ/mol. Besides, the “Residual (ΔGbind^Obs—ΔGbind^Calc)” value at human CYP 1A2 [6] (training set) is -1.1 kJ/mol. The IC50 in the series with CYP 1A2 [7] (setting [16]) is 3.84 µM. In addition, the Reported inhibition mechanism result in the series on CYP 1A2 [2] (literature) is “Substrate^72”.
As for `Cc1cccc(Nc2ccccc2C(=O)O)c1C` [Compound 1, Mefenamic Acid], the “Residual (ΔGbind^Obs—ΔGbind^Calc)” value on human CYP 1A2 [6] (training set) is 4.3 kJ/mol. Further, the IC50 with CYP 1A2 [1] (setting [14]) was 14 µM. For the same compound, in the series on CYP 1A2 [2] (literature), the Reported inhibition mechanism entry is on record as “Competitive^60”. Further, at human CYP 1A2 [3], the IC50 worked out at 19 ± 7 µM, the ΔΔG bind is -0.8 kJ/mol and the “ΔG bind (inhouse)” value was -28.9 ± 1.0 kJ/mol. Besides, the “ΔG bind (lit)” value in the series with CYP 1A2 [4] was -29.7 kJ/mol. In addition, the “ΔGbind^Obs” value in the series with CYP 1A2 [4] (training set) was -29.7 kJ/mol.
`O=C1C[C@@H](c2ccc(O)cc2)Oc2cc(O)cc(O)c21` [Compound 17, Naringenin]: in the series with CYP 1A2 [1] (setting [13]), the IC50 is 12.3 µM. Besides, the Reported inhibition mechanism entry in the series on CYP 1A2 [2] (literature) is “Substrate^68”. Also, the “ΔGbind^Obs” value in the series on CYP 1A2 [4] (test set) was -30.0 kJ/mol.
`Cc1cccc(C)c1OCC(C)N` (stereo not drawn) [Compound 23, Mexiletine]: the “ΔGbind^Obs” value in the series on CYP 1A2 [5] was -34.8 kJ/mol. On human CYP 1A2 [6] (training set), the “Residual (ΔGbind^Obs—ΔGbind^Calc)” value is -7.8 kJ/mol. In the series on CYP 1A2 [7] (setting [16]), the IC50 is 1.84 µM. In the series with CYP 1A2 [2] (literature), the Reported inhibition mechanism entry is listed as “Competitive^70”.
As to `Oc1ccc2ccccc2c1` [Compound 10, 2-naphthol], at human CYP 1A2 [8], the ΔΔG bind was found to be 3.4 kJ/mol and the “ΔG bind (inhouse)” value is -32.6 ± 0.7 kJ/mol. In addition, in the series on recombinant CYP 1A2 [10], the “ΔG bind (lit)” value is -29.1 ± 0.2 kJ/mol and the “ΔGbind^Obs” value was -29.1 kJ/mol. The “Residual (ΔGbind^Obs–ΔG bind ^Calc), error in prediction” value at human CYP 1A2 [6] was -6.5 kJ/mol. Besides, the IC50 in the series on recombinant CYP 1A2 [11] (recombinant enzyme) was 17 ± 1.5 µM. The compound also returned an IC50 at human CYP 1A2 [3] of 4.4 ± 1.2 µM.
Consider `COc1ccc2nc3ccc(=O)cc-3oc2c1` [7-Methoxyresorufin], for which the K m at human CYP 1A2 [8] was 2.5 µM.
In the case of `Cc1ccc(CCN)cc1` [Compound 12, p-tolylethylamine], the “Residual (ΔGbind^Obs–ΔG bind ^Calc), error in prediction” value at human CYP 1A2 [6] (test set) is -6.4 kJ/mol. Further, the IC50 in the series with recombinant CYP 1A2 [11] (read-out: IC 50 (lit), Source 3, recombinant CYP 1A2, 7-ethoxyresorufin O-dealkylation) was 14 ± 2.5 µM; on human CYP 1A2 [3] (read-out: IC 50 (inhouse), 7-methoxyresorufin at Km 2.5 μM, triplicate) it was 120 ± 33 µM. In addition, the “ΔG bind (lit)” value in the series on recombinant CYP 1A2 [12] (from literature IC50, Source 3 (Ref. 25)) is -29.6 ± 0.5 kJ/mol. The “ΔGbind^Obs” value with recombinant CYP 1A2 [12] (test set, from literature IC50, Source 3) was -29.6 kJ/mol. The same compound had a ΔΔG bind on human CYP 1A2 [3] of -5.3 kJ/mol. Moreover, the “ΔG bind (inhouse)” value at human CYP 1A2 [3] was -24.3 ± 0.7 kJ/mol.
On to `O=c1cc(-c2ccccc2)oc2c1ccc1ccccc12` [Compound 7, alpha-Naphthoflavone], for which, in the series with CYP 1A2 [5], the “ΔG bind (lit)” value was […] and the “ΔGbind^Obs” value is […]. Further, the IC50 in the series with CYP 1A2 [7] (setting [15]) was […]. In addition, the Reported inhibition mechanism result in the series on CYP 1A2 [2] (literature) was “Competitive/uncompetitive^65”.
Regarding `O=C(O)c1cccnc1Nc1cccc(C(F)(F)F)c1` [Compound 16, Niflumic Acid], the “Residual (ΔGbind^Obs—ΔGbind^Calc)” value at human CYP 1A2 [6] (training set) is 2.9 kJ/mol. Besides, the IC50 in the series on CYP 1A2 [1] (setting [13]) is 11.6 µM. Besides, in the series on CYP 1A2 [4] (training set), the “ΔGbind^Obs” value is -30.2 kJ/mol.
Take `Cc1c2ccncc2c(C)c2c1[nH]c1ccccc12` [Compound 5, Ellipticine]: the “ΔG bind (lit)” value in the series on CYP 1A2 [5] is -41.8 ± 0.2 kJ/mol. In addition, the IC50 in the series on CYP 1A2 [7] (setting [15]) is 0.11 ± 0.01 µM. For the same compound, on human CYP 1A2 [3], the IC50 is 0.007 ± 0.002 µM, the ΔΔG bind was found to be 6.9 kJ/mol and the “ΔG bind (inhouse)” value is -48.7 ± 0.7 kJ/mol.
